Experimental data as given in patent publication US5968526A, “T cell epitopes of the major allergens from Dermatophagoides (house dust mite)” (Immulogic Pharamaceutical Corporation, priority 1995, dated 1999).

How the values were obtained:
Assay type in all cases: cell-based, human
[1] = tested on: PBMC from mite-allergic patient; assay: primary T cell (PBMC) proliferation, mite-allergic patient, tritiated thymidine; conditions: medium 1071 ± 30
Protocol: Peripheral blood mononuclear cells (PBMC) were purified by Ficoll-Hypaque centrifugation of a peripheral blood specimen from mite-allergic patient and were assayed for proliferation in response to various antigens, i.e., affinity-purified Der p I, affinity purified Der p II, various Der p I and Der p II peptides. For assay, 5×10^4 PBMC were cultured in triplicate microwells for 7 days at 37° C. in the presence of various concentrations of antigen in 200 μl RPMI-1640 containing 5% human AB serum. Each well then received 1 μCi tritiated thymidine for 16 hours. The counts incorporated were collected onto glass fiber filters and processed for liquid scintillation counting. […] The CPM +/- standard deviation are shown. The stimulation index of each response (S.I.) is the ratio of the ^3 H-thymidine CPM incorporated by the cells in response to antigen divided by the ^3 H-thymidine CPM incorporated by cells in medium only. […] Thus, these peptides contain Der p I or Der p II T cell epitopes recognized by T cells from this particular allergic patient.

[2] = tested on: T cell lines primed in vitro to Der f II; assay: secondary proliferation of Der f II-primed T cell lines (Examples IX, X, XI); conditions: for T cell response to Der p II peptides: Der f II primed, FIG. 11; for T cell response to Der p II peptides / T cell reactivity: 10 positive experiments; for T cell reactivity: overlapping Der f II peptides, FIG. 10; for T cell response: patient 384, recombinant Der f II primed, data not shown
Protocol: Experiments similar to those of Example V were performed to determine the T cell-reactive areas of the Der f II protein. For example, PBMC from house dust mite-allergic patient 384 were stimulated in vitro with purified recombinant Der f II and the T cell line was then challenged in the presence of x-irradiated (25,000 Rads) autologous Epstein-Barr virus transformed B cells as antigen presenting cells with various overlapping […]. The results of this proliferation assay indicate that T cells from this particular patient respond well to peptides DF II-1, DF II-2, DF II-3.1, DF II-4.5, DF II-15, DF II-16, and DF I-19.1 (data not shown).
The above procedure was followed with 10 patients, except in individual cases, T cell lines were primed by stimulating the patient PBMC with 20 μg/ml or 3 μg/ml purified native Der f II, and were assayed in the presence of x-irradiated (3500 Rads) autologous PBMC as antigen-presentingcells.
A study similar to that described in Example VII was carried out to determine the T cell cross-reactivity of the Der p II and Der f II proteins. T cells primed with the Der f II protein were challenged with various Der f II peptides and a set of substantially matching Der p II peptides. […]

[3] = tested on: T cell lines primed in vitro to Der p II; assay: secondary proliferation of Der p II-primed T cell lines (Examples VIII, X, XI); conditions: for T cell reactivity: overlapping Der p II peptides, FIG. 9; for T cell reactivity / T cell response to Der f II peptides: 26 positive experiments; for T cell response to Der f II peptides: Der p II primed, FIG. 12
How it was run: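 PBMC from house dust mite-allergic patients primed in vitro with native or recombinant Der p II at 20 μg/ml (or recombinant at 3 μg/ml), with x-irradiated (3500 Rads) autologous PBMC as antigen-presenting cells. Lines then challenged with Der p II-derived peptides; proliferation expressed as S.I., ranked sum scoring top three responses 3, 2, 1.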

[4] = tested on: T cell lines primed in vitro to Der p I; assay: secondary proliferation of Der p I-primed T cell lines (Examples V, VII, XI); conditions: overlapping Der p I peptides; 33 positive experiments
How it was run: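 PBMC were primed with native or recombinant Der p I (10 or 20 μg/ml) for 7 days, then expanded with IL-2 and IL-4. Resting T cells (2×10^4) were cultured 3 days with irradiated autologous EBV-B cells or PBMC and titrated protein or peptides, then pulsed 16 h with 1 μCi ³H-thymidine. S.I. was peak-response CPM over medium-only CPM, with S.I. ≥2.0 scored positive.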

[5] = tested on: T cell cultures reactive with Der p I from house dust mite-allergic subjects; assay: secondary T cell proliferation assay, Group I (Der p I) overlapping and candidate/unique peptides; percent of T cell reactivity; conditions: patient 1733; highest S.I. ≥2.0 recorded
Excerpt: To determine whether a peptide (candidate peptide) or a combination of candidate peptides are likely to comprise a sufficient percentage of the T cell reactivity of house dust mite protein allergens, to induce T cell nonresponsiveness in a substantial percentage of a population of individuals sensitive to house dust mite allergen, an algorithm can be used. In accordance with one such algorithm, a set of overlapping peptides is produced by systematically dividing the protein allergen(s) of interest into al least two overlapping peptide regions of desired lengths (e.g., of about 12-30 amino acid residues in length, preferably not longer than about 25 amino acid residues in length with about 5-15 amino acid residues of overlap). This division into peptide regions can be arbitrary, can be made according to an algorithm, or can be wholly or partially based on regions of house dust mite Group I and/or Group II protein allergens known to comprise at least one T cell epitope. Preferably, at least 50% of the entire house dust mite protein allergen sequence and more preferably, the entire house dust mite protein allergen sequence is divided into two or more peptides. A human T cell stimulation index is determined for each of the peptides in an in vitro T cell proliferation assay as described herein for each individual tested in a population of individuals sensitive to the protein antigen. For example both WO93/08279 and WO94/24281 disclose T cell studies with overlapping peptides derived from Der p I, Der p II, Der f I and Der f II. A candidate peptide or combination of candidate peptides is selected based, at least in part, on the mean human T cell stimulation index of the candidate peptide in the set of peptides tested and the positivity index of the candidate peptide in the set of peptides tested (see, FIGS. 3 and 4). The human T cell stimulation index for the candidate peptide(s) is summed. For each individual, the human T cell stimulation index for the candidate peptide(s) is divided by the sum of the human T cells stimulation indices of the remaining peptides in the set of peptides tested to determine a percent of T cell reactivity as shown below:
Alternatively, the presence of T cell epitopes in the candidate peptide dependent on amino acids residues in an overlapping peptide located at either the N-terminus or C-terminus of the candidate peptide in the amino acid sequence of the protein antigen, but which epitopes are not present in the candidate peptide can be considered in calculating the percent of T cell reactivity in the candidate peptide by use of the following formula: [formula]
In this formula, "NT flanking peptide" refers to a peptide which comprises amino acid residues which overlap with amino acid residues located at the N-terminus of the candidate peptide in the amino acid sequence of the protein antigen from which the peptide is derived; "CT flanking peptide" refers to a peptide which comprises amino acid residues which overlap with amino acid residues located a the C-terminus of the candidate peptide in the amino acid sequence of the protein antigen from which the peptide is derived. In this calculation stimulation indices for the candidate peptide, the N-terminal flanking peptide and the C-terminal flanking peptide are added and divided by the sum total of the stimulation indices for the entire set of overlapping peptides obtain a percent of T cell reactivity for the candidate peptide. If a combination of two or more candidate peptides is selected each of which contains amino acid residues which overlap, this calculation cannot be used to determine a percent of T cell reactivity for each candidate peptide separately. However, a total percent of T cell reactivity for the combination of candidate peptides can be obtained. In this situation, the stimulation indices for all of the candidate peptides which overlap is included in the calculation. […]

[6] = tested on: T cell lines primed in vitro with Der p II; assay: T cell proliferation with fine map and modified Group II peptides (Example XIV); conditions: FIGS. 32a-b
Protocol: Long term T cell lines were established by stimulation of 2×10^6 PBL/ml in bulk cultures of complete medium (RPMI-1640, 2 mM L-glutamine, 100 U/ml penicillin/streptomycin, 5×10^-5 M 2-mercaptoethanol, and 10 mM HEPES supplemented with 5% heat inactivated human AB serum) with 30 μg/ml of purified native Der p I or Der p II for 5-6 days at 37° C. in a humidified 5% CO2 incubator to select for house dust mite protein allergen reactive T cells. This amount of priming antigen was determined to be optimal for the activation of T cells from house dust mite allergic patients. Viable cells were purified by LSM centrifugation and cultured in complete medium supplemented with 5 units recombinant human IL-2/ml and 5 units recombinant human IL-4/ml for up to three weeks until the cells no longer responded to lymphokines and were considered "rested". The ability of the T cells to proliferate to selected peptides, purified Der p I or Der p II, or positive (PHA) controls or negative controls (medium only) was then assessed. For assay, 2×10^4 rested cells were restimulated in the presence of 2×10^4 autologous Epstein-Barr virus (EBV)-transformed B cells (prepared as described below) (gamma-irradiated with 25,000 RADS) or with 5×10^4 autologous PBMs (gamma-irradiated with 3500 RADS), with 2-50 μg/ml of purified native Der p I or Der p II in a volume of 200 μl complete medium in duplicate or triplicate wells in 96-well round bottom plates for 3 days. Each well then received 1 μCi tritiated thymidine for 16-20 hours. The counts incorporated were collected onto glass fiber filter mats and processed for liquid scintillation counting. […] The titrations were used to optimize the dose of peptides in T cell assays.
The maximum response in a titration of each peptide is expressed as the stimulation index (S.I.). The S.I. is the counts per minute (CPM) incorporated by cells in response to peptide, divided by the CPM incorporated by cells in medium only. […] The positive results were used in calculating mean stimulation indices for each peptide for the individual patient tested.
The above procedure was followed with 18 patients in the studies using peptides derived from Der p I and Der f I (FIGS. 31a-b), and 21 patients in the studies with Der p II peptides (FIGS. 32a-b). Individual patient results were used in calculating the mean S.I. for each peptide if the patient responded to the Der p I or Der p II protein at an S.I. of 2.0 or greater and the patient responded to at least one peptide derived from a house dust mite allergen at an S.I. f 2.0 or greater. A summary of positive experiments from the patients tested is shown in FIGS. 32a and 32b and FIGS. 33a and 33b. The bars represent the positivity index. […] In parenthesis above each bar are the mean stimulation indices for each peptide or protein for the group of patients tested.
Autologous EBV-transformed cell lines were γ-irradiated with 25,000 Rad and used as antigen presenting cells in secondary proliferation assays and secondary bulk stimulations. These EBV-transformed cell lines were made by incubating 5×10^6 PBL with 1 ml of B-59/8 Marmoset cell line (ATCC CRL1612, American Type Culture Collection, Rockville, Md.) conditioned medium in the presence of 1 μg/ml phorbol 12-myristate 13-acetate (PMA) at 37° C. for 60 minutes in 12×75 mm polypropylene round-bottom Falcon snap cap tubes (Becton Dickinson Labware, Lincoln Park, N.J.). These cells were then diluted to 1.25×10^6 cells/ml in RPMI-1640 as described above except supplemented with 10% heat-inactivated fetal bovine serum and cultured in 200 μl aliquots in flat bottom culture plates until visible colonies were detected. They were then transferred to larger wells until the cell lines were established.

DP II-4: Der p II peptide (QLEAVFEANQNTKTAKIEIKASIDG)
CPM ± S.D. ([1]; 10 μg/ml): 2126 ± 25 CPM
CPM ± S.D. ([1]; 30 μg/ml): 1979 ± 94 CPM
CPM ± S.D. ([1]; 100 μg/ml): 2314 ± 116 CPM
T cell response to Der p II peptides [2]: respond significantly
T-cell reactivity (DPII-22 series development) ([3]; Der p II T-cell map and analogs): high T-cell reactivity
T cell reactivity [3]: significant T cell reactivity

DP I-16: Der p I peptide (HAVNIVGYSNAQGVDYWIVRNS)
T cell reactivity [4]: significant regions of T cell reactivity
T cell stimulation index (S.I.) [5]: 2.0

DF II-1: Der f II peptide (DQVDVKDCANNEIKKVMVDG)
T cell reactivity [2]: significant areas of T cell reactivity
T cell response [2]: respond well
T cell response to Der f II peptides [3]: respond significantly

DF II-4.5: Der f II peptide (TLEALFDANQNTKTAKIEIKASLDG)
T cell reactivity [2]: significant areas of T cell reactivity
T cell response [2]: respond well
T cell response to Der f II peptides [3]: respond significantly

DF II-19.1: Der f II peptide (VVTVKLVGDNGVLACAIATHAKIRD)
T cell reactivity [2]: significant areas of T cell reactivity
T cell response to Der f II peptides [3]: respond significantly

DP II-1: Der p II peptide (DQVDVKDCANHEIKKVLVPG)
T cell response to Der p II peptides [2]: respond significantly
T cell reactivity [3]: significant T cell reactivity
T cell response ([3]; patient 348, native Der p II primed, data not shown): responds well

DF II-17: Der f II peptide (CPLVKGQQYDAKYTWNVPKIAPKSENV)
T cell reactivity [2]: significant areas of T cell reactivity
T cell response to Der f II peptides [3]: respond significantly

DF II-15: Der f II peptide (KIEIKASLDGLEIDVPGIDTNACHFMK)
T cell reactivity [2]: significant areas of T cell reactivity
T cell response [2]: respond well
T cell response to Der f II peptides [3]: respond significantly

DP II-25: Der p II peptide (TVKVMGDDGVLACAIATHAKIRD)
T cell response, Group II peptides [6]: positive T cell studies
stimulation index / response to selected Der p II peptides ([2]; 10 patients, FIG. 18a): highest stimulation index

DP I-17: Der p I peptide (GDNGYGYFAANIDLMMIEEYPYVVIL)
T cell stimulation index (S.I.) [5]: 0
